Columns and labels:
CvHAS [1] = details: acceptor (primer) site; UDP-GlcA and Mn2+ present; nanodisc with Nb881 and Nb872; catalytically inactive mutant
CvHAS [2] = target: T1, CvHAS (Paramecium bursaria Chlorella virus CZ-2, UniProt Z9D3Q5ADJ6); experiment: cryo-EM structure, […] Å; type: binding; details: formed in situ from GlcNAc and UDP-GlcA; Mn2+; nanodisc with Nb881 and Nb872; also with UDP in 8SNE (3.0 Å)
T1 construct: pET28a-CvHAS, Ni-NTA purified, expressed in E. coli C43; MSP1E3D1 nanodiscs with nanobodies for cryo-EM, IMVs for activity
T1 sequence (Z9D3Q5ADJ6 1-562): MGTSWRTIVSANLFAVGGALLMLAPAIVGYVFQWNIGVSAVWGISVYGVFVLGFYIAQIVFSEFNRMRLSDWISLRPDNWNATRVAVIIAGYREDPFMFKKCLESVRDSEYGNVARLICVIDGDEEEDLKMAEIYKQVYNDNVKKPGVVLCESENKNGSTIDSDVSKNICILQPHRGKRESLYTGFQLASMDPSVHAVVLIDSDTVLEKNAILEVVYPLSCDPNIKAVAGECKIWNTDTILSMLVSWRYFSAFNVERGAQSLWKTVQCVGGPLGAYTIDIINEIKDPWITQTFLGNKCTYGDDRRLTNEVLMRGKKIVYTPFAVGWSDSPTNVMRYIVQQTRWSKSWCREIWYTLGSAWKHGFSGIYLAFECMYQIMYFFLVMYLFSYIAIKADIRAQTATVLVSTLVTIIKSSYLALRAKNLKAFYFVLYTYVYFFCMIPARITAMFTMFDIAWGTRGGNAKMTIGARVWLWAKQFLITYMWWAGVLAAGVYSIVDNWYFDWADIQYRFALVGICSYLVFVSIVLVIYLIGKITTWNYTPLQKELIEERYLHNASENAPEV

XlHAS1 = target: T2, XlHAS1 (Xenopus laevis, UniProt P13563); experiment: cryo-EM structure, […] Å; type: binding; details: Mg2+; Fab complex in GDN; gating loop inserted; active site
T2 construct: gene has1; full-length, N-terminal 12xHis tag, expressed in Sf9 cells, purified in GDN detergent, monomer
T2 sequence (P13563 1-588): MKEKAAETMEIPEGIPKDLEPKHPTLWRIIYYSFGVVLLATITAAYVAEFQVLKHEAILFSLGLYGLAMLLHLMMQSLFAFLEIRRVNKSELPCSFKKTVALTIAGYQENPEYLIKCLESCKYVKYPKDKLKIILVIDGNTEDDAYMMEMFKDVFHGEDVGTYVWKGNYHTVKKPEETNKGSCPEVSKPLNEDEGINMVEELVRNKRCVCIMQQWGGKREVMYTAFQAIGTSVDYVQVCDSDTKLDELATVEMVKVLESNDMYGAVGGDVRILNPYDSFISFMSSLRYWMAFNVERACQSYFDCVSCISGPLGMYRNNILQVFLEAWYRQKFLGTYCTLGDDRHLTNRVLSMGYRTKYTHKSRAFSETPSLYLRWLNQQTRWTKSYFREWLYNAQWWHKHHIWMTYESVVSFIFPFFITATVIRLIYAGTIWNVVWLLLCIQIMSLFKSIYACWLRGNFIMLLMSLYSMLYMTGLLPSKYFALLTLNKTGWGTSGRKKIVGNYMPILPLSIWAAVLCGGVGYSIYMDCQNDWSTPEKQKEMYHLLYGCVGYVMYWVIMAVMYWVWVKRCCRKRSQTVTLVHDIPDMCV

CvHAS [3] = target: T1, CvHAS; experiment: cryo-EM structure, […] Å; type: binding; details: formed in situ from UDP-GlcNAc and UDP-GlcA; Mn2+; nanodisc with Nb886 and Nb872; minor UDP-GlcA state not excluded
[4] = target: T3, Xenopus laevis HAS isoform 1 (Xenopus laevis, UniProt P13563); experiment: cryo-EM structure; GDN-solubilised XlHAS1 mixed with Fab at a 1:4 molar ratio, overnight at 4 °C, SEC on Superose 6 in 0.01% GDN; apo, HA-bound and UDP-bound samples; details: both partners purified
T3 construct: also called XlHAS1; DG42

Molecule: CC(=O)N[C@H]1C(O)O[C@H](CO)[C@@H](O)[C@@H]1O (some centres unmarked) [GlcNAc]
- cryo-EM structure, 3.2 Å (CvHAS [1]): the GlcNAc primer is well resolved and occupies the same acceptor position

Molecule: CC(=O)N[C@H]1C(O)O[C@H](CO)[C@@H](O)[C@@H]1O[C@@H]1O[C@H](C(=O)O)[C@@H](O)[C@H](O)[C@H]1O (some centres unmarked) [HA disaccharide]
- cryo-EM structure, 3.3 Å (CvHAS [2]): resolves a GlcNAc at the acceptor position that is elongated by a single sugar unit

Molecule: O=c1ccn([C@@H]2O[C@H](COP(=O)(O)OP(=O)(O)O)[C@@H](O)[C@H]2O)c(=O)[nH]1 [UDP]
- cryo-EM structure, 3.2 Å (XlHAS1): UDP is coordinated by conserved motifs of the GT domain
- cryo-EM structure, 3.0 Å (CvHAS [3]): exposure of WT CvHAS to both of its substrates resulted in a UDP–HA disaccharide-bound conformation

B1: noninhibitory antibody Fab fragment against XlHAS1 (Fab, V domains shown)
VH: EVQLVESGGGLVQPGGSLRLSCAASGFNVSSYYIHWVRQAPGKGLEWVASISSSSGSTSYADSVKGRFTISADTSKNTAYLQMNSLRAEDTAVYYCARSGYYWGPYFGGFDYWGQGTLVTVSS
VL: DIQMTQSPSSLSASVGDRVTITCRASQSVSSAVAWYQQKPGKAPKLLIYSASSLYSGVPSRFSGSRSGTDFTLTISSLQPEDFATYYCQQSSSSLITFGQGTKVEIK
notes: source: selected from Fab phage library E on XlHAS1 nanodiscs
- binding result [4]: binds

Source: PMC11750622, “Structural insights into translocation and tailored synthesis of hyaluronan” (Nature Structural & Molecular Biology, 2024)
